From US20050209157A1, “Short bioactive peptides and methods for their use” (priority 2001, published 2005)
≈ marks a conversion by molar mass, not a printed value. Read-outs that look alike come from different tables or passages of the source. No end group written: not given here.

Columns and labels:
[1] = tested on: MCF7; assay: Anti-cancer assay, MTT, LD50; assay type: cell-based; details: MCF7 breast adenocarcinoma line, MTT, 24 hours with peptide
Excerpt: (§1) Numbers are LD50 values (μg/mL).

[2] = in vitro; details: human, WI38 normal lung fibroblast cells
[3] = tested on: H1299; assay: Anti-cancer assay, MTT, LD50; assay type: cell-based; details: 24 hours with peptide, lung large cell carcinoma
Excerpt: as §1

[4] = tested on: BMKC; assay: Anti-cancer assay, MTT, LD50; assay type: cell-based; details: BMKC cloned melanoma line, 24 hours with peptide
Excerpt: as §1

[5] = tested on: SW480; assay: Anti-cancer assay, MTT, LD50; assay type: cell-based; details: SW480 colon adenocarcinoma line, 24 hours with peptide
Excerpt: as §1

[6] = tested on: HeLaS3; assay: Anti-cancer assay, MTT, LD50; assay type: cell-based; details: 24 hours with peptide, cervical carcinoma
Excerpt: as §1

[7] = tested on: PC3; assay: Anti-cancer assay, MTT, LD50; assay type: cell-based; details: 24 hours with peptide, prostate adenocarcinoma
Excerpt: as §1

[8] = tested on: WI38; details: MTT, 24 hours with peptide; for WI38 LD50: normal fibroblast line
[9] = in vitro; assay type: cell-based, human; details: human, human red blood cells
Protocol: This hemolytic assay is based upon that presented in Journal of Peptide Research 53: 82-90 (1999). […] All procedures were performed according to safety protocols pertaining to the handling and disposal of human body fluids.
Red blood cells (RBCs) were washed three times with PBS (35 mM phosphate buffer 0.15 M NaCl, pH 7.0). RBCs suspended in PBS (0.4% (v/v); about 10 ml per 15 peptides) were prepared. Suspensions (100 μl) were aliquoted to each sample and control tube. Serially diluted peptide solutions (100 μl) were pipetted into the sample tubes. Negative control tubes contained 100 μl PBS; positive control tubes contained 100 μl 1% Triton-X100 detergent. All tubes were incubated for 1 hour at 37° C. The tubes were removed from the incubator and centrifuged at 1000 g for 5 minutes. Supernatant (100 μl) was pipetted to a 96-well polyvinyl chloride plate. The absorbance at 414 nm (A414) was measured, and used to calculate the percent hemolysis according to the following formula. [formula]

[10] = LD50 WI38, WI38 normal lung fibroblast line, MTT, 24 hours with peptide
[11] = WI38 LD50, MTT, 24 hours with peptide, normal fibroblast line
[12] = WI-38 LD50, Table 26, valine substitution
[13] = pH 7, Table 26, valine substitution, read-out: Hemolysis RBC LD50
[14] = pH 7, hemolytic assay, concentration at 50% hemolysis, 1 hour at 37° C., read-out: LD50

VAKALKALLKALKAL-NH2 [FLAK 17 CV]
LD50 MCF7 [1]: 23 µg/mL
CC50 at 24 h [2, 10]: 26 µg/mL

FALALKALKKA-NH2 [Flak 96H]
H1299 LD50 [3]: > (> indicates greater than 1000)
LD50 BMKC [4]: > (> indicates greater than 1000)
LD50 MCF7 [1]: > (> indicates greater than 1000)
LD50 SW480 [5]: > (> indicates greater than 1000)
HeLaS3 LD50 [6]: > (> indicates greater than 1000)
PC3 LD50 [7]: > (> indicates greater than 1000)
WI38 LD50 [8]: > (> indicates greater than 1000)
LD50 WI38 ([8]; WI38 normal lung fibroblast line): > (> indicates greater than 1000)

FALLKALLKKAL-NH2 [Flak 961]
H1299 LD50 [3]: 240 µg/mL
HeLaS3 LD50 [6]: 380 µg/mL
PC3 LD50 [7]: 120 µg/mL
CC50 at 24 h [2, 11]: 270 µg/mL

CC(C)C[C@H](NC(=O)[C@H](C)NC(=O)[C@H](CC(C)C)NC(=O)[C@H](C)NC(=O)[C@H](CC(C)C)NC(=O)[C@H](CCCCN)NC(=O)[C@H](C)NC(=O)[C@H](CC(C)C)NC(=O)[C@H](CCCCN)NC(=O)[C@H](CCCCN)NC(=O)[C@H](C)NC(=O)[C@H](CC(C)C)NC(=O)[C@H](CCCCN)NC(=O)[C@H](C)NC(=O)[C@H](CC(C)C)NC(=O)[C@H](CCCCN)NC(=O)[C@H](CCCCN)NC(=O)[C@H](C)NC(=O)[C@@H](N)C(C)C)C(N)=O [compound 504]
CC50 at 24 h [2, 12]: 110 µg/mL (≈ 55.3 µM)
HC50 at 1 h [9, 13]: 70 µg/mL

VALALKALKKLAKKLKKLAKKAL-NH2 [FLAK04 AM V]
LD50 MCF7 [1]: 84 µg/mL
CC50 at 24 h [2, 10]: 95 µg/mL

VALALKALKKLLKKLKKLAKKAL-NH2 [03 AMV]
LD50 MCF7 [1]: 62 µg/mL
CC50 at 24 h [2, 10]: 77 µg/mL

KLAKKLAKLAKLAKAL-NH2 [P159, reference compound]
H1299 LD50 [3]: 74 µg/mL
LD50 BMKC [4]: 140 µg/mL
LD50 MCF7 [1]: 61 µg/mL
LD50 SW480 [5]: 140 µg/mL
HeLaS3 LD50 [6]: 275 µg/mL
PC3 LD50 [7]: 145 µg/mL
CC50 at 24 h [2, 10]: 82 µg/mL
WI38 LD50 [8]: 82 µg/mL

VAKKLAKLAKKLLAL-NH2 [compound 505]
CC50 at 24 h [2, 12]: 85 µg/mL
HC50 at 1 h [9, 13]: 620 µg/mL

VAKLLAKALKKLL-NH2 [P506]
HC50 at 1 h [9, 14]: 120 µg/mL

GIGKFLHSAKKFGKAFVGGIMNS-NH2 [P16, reference compound]
HC50 at 1 h [9, 14]: 550 µg/mL

CC[C@H](C)[C@H](NC(=O)CN)C(=O)NCC(=O)N[C@@H](C)C(=O)N[C@H](C(=O)N[C@@H](CC(C)C)C(=O)N[C@@H](CCCCN)C(=O)N[C@H](C(=O)N[C@@H](CC(C)C)C(=O)N[C@H](C(=O)N[C@H](C(=O)NCC(=O)N[C@@H](CC(C)C)C(=O)N1CCC[C@H]1C(=O)N[C@@H](C)C(=O)N[C@@H](CC(C)C)C(=O)N[C@H](C(=O)N[C@@H](CO)C(=O)N[C@@H](Cc1c[nH]c2ccccc12)C(=O)N[C@H](C(=O)N[C@@H](CCCCN)C(=O)N[C@@H](CCCNC(=N)N)C(=O)N[C@@H](CCCCN)C(=O)N[C@@H](CCCNC(=N)N)C(=O)N[C@@H](CCC(N)=O)C(=O)N[C@@H](CCC(N)=O)C(N)=O)[C@@H](C)CC)[C@@H](C)CC)[C@@H](C)O)[C@@H](C)O)C(C)C)C(C)C [MELITTIIN]
H1299 LD50 [3]: 25 µg/mL
LD50 BMKC [4]: 18 µg/mL
LD50 MCF7 [1]: 9 µg/mL
LD50 SW480 [5]: 23 µg/mL
HeLaS3 LD50 [6]: 35 µg/mL
PC3 LD50 [7]: 13 µg/mL
CC50 at 24 h [2, 10]: 16 µg/mL (≈ 5.62 µM)
WI38 LD50 [8]: 16 µg/mL

VAKLLAKALKKLL-NH2 [FLAK50D V]
LD50 MCF7 [1]: 45 µg/mL
CC50 at 24 h [2, 10]: 75 µg/mL

FAKKLAKKLKKLAKKLAK-NH2 [Shiva 10(1-18)AM]
LD50 BMKC [4]: 66 µg/mL
LD50 MCF7 [1]: 45 µg/mL
LD50 SW480 [5]: 63 µg/mL
CC50 at 24 h [2, 10]: 101 µg/mL

FAKKLAKKLKKLAKKLAK-NH2 [Shiva 10 (1-18) AM]
H1299 LD50 [3]: 71 µg/mL
HeLaS3 LD50 [6]: 190 µg/mL
PC3 LD50 [7]: 81 µg/mL
CC50 at 24 h [2, 11]: 101 µg/mL
HC50 at 1 h [9, 14]: 900 µg/mL

VAKALKALLKALKAL-NH2 [P501, VAKALKALLKALKAL-NH2]
HC50 at 1 h [9, 14]: 15 µg/mL

VALALKALKKLAKKLKKLAKKAL-NH2 [compound 509]
CC50 at 24 h [2, 12]: 95 µg/mL
HC50 at 1 h [9, 13]: 40 µg/mL

FKVKFKVKVK-NH2 [P303, reference compound]
H1299 LD50 [3]: 345 µg/mL
LD50 BMKC [4]: 330 µg/mL
LD50 MCF7 [1]: 315 µg/mL
LD50 SW480 [5]: 530 µg/mL
HeLaS3 LD50 [6]: > (> indicates greater than 1000)
PC3 LD50 [7]: 530 µg/mL
CC50 at 24 h [2, 10]: 355 µg/mL
WI38 LD50 [8]: 355 µg/mL
HC50 at 1 h [9, 14]: 500 µg/mL

VAKKFAKKFKKFAKKFAKFAFAF-NH2 [P503]
LD50 MCF7 [1]: 210 µg/mL
CC50 at 24 h [2, 10]: 150 µg/mL
HC50 at 1 h [9, 14]: 20 µg/mL

VAKFLAKFLKKAL-NH2 [P502, VAKFLAKFLKKAL-NH2]
HC50 at 1 h [9, 14]: 100 µg/mL

MPKWKVFKKIEKVGRNIRNGIVKAGPAIAVLGEAKALG-OH [SB37COOH]
H1299 LD50 [3]: 220 µg/mL
LD50 BMKC [4]: 120 µg/mL
LD50 MCF7 [1]: 175 µg/mL
LD50 SW480 [5]: 82 µg/mL
HeLaS3 LD50 [6]: 150 µg/mL
CC50 at 24 h [2, 10]: 130 µg/mL
WI38 LD50 [8]: 130 µg/mL

FALALKALKKLKKALKKAL-OH [P28]
H1299 LD50 [3]: 54 µg/mL
LD50 BMKC [4]: 93 µg/mL
LD50 MCF7 [1]: 65 µg/mL
LD50 SW480 [5]: 59 µg/mL
HeLaS3 LD50 [6]: 80 µg/mL
PC3 LD50 [7]: 16 µg/mL
CC50 at 24 h [2, 10]: 101 µg/mL
WI38 LD50 [8]: 101 µg/mL
HC50 at 1 h [9, 14]: 700 µg/mL

FAKKLAKKLKKLAKKLIGAVLKV-OH [SHIVA 11 [(1-16)ME(2-9]-COOH]
H1299 LD50 [3]: 54 µg/mL
LD50 BMKC [4]: 94 µg/mL
LD50 MCF7 [1]: 95 µg/mL
LD50 SW480 [5]: 120 µg/mL
HeLaS3 LD50 [6]: 180 µg/mL
PC3 LD50 [7]: 28 µg/mL
CC50 at 24 h [2, 10]: 34 µg/mL
WI38 LD50 [8]: 34 µg/mL

CC(C)C[C@H](NC(=O)[C@H](C)NC(=O)[C@H](CC(C)C)NC(=O)[C@H](C)NC(=O)[C@H](CC(C)C)NC(=O)[C@H](CCCCN)NC(=O)[C@H](C)NC(=O)[C@H](CC(C)C)NC(=O)[C@H](CCCCN)NC(=O)[C@H](CCCCN)NC(=O)[C@H](C)NC(=O)[C@H](CC(C)C)NC(=O)[C@H](CCCCN)NC(=O)[C@H](C)NC(=O)[C@H](CC(C)C)NC(=O)[C@H](CCCCN)NC(=O)[C@H](CCCCN)NC(=O)[C@H](C)NC(=O)[C@@H](N)Cc1ccccc1)C(N)=O [P36]
H1299 LD50 [3]: 57 µg/mL
LD50 BMKC [4]: 56 µg/mL
LD50 MCF7 [1]: 9 µg/mL
LD50 SW480 [5]: 30 µg/mL
PC3 LD50 [7]: 19 µg/mL
CC50 at 24 h [2, 10]: 19 µg/mL (≈ 9.32 µM)
WI38 LD50 [8]: 19 µg/mL
HC50 at 1 h [9, 14]: 85 µg/mL

FAKKFAKKFKKFAKKFAKFAFAF-NH2 [compound 301]
HC50 at 1 h [9, 13]: 10 µg/mL

VAKKLAKLAKKLLAL-NH2 [FLAK43 AM V]
LD50 MCF7 [1]: 86 µg/mL
CC50 at 24 h [2, 10]: 85 µg/mL

VALALKALKKALKKLKKALKKAL-OH [compound 508]
CC50 at 24 h [2, 12]: 190 µg/mL
HC50 at 1 h [9, 13]: 70 µg/mL

VALALKALKKALKKLKKALKKAL-NH2 [P30]
WI38 LD50 [8]: 93 µg/mL

VALALKALKKL-NH2 [compound 180]
CC50 at 24 h [2, 12]: 1000 µg/mL
HC50 at 1 h [9, 13]: 850 µg/mL

VAKFLAKFLKKAL-NH2 [FLAK50 Q1V]
LD50 MCF7 [1]: 92 µg/mL
CC50 at 24 h [2, 10]: 64 µg/mL

VAKKFAKKFKKFAKKFAKFAFAF-NH2 [compound 503]
CC50 at 24 h [2, 12]: 150 µg/mL
HC50 at 1 h [9, 13]: 20 µg/mL

CC(C)C[C@H](NC(=O)[C@H](C)NC(=O)[C@H](CC(C)C)NC(=O)[C@H](C)NC(=O)[C@H](CC(C)C)NC(=O)[C@H](CCCCN)NC(=O)[C@H](C)NC(=O)[C@H](CC(C)C)NC(=O)[C@H](CCCCN)NC(=O)[C@H](CCCCN)NC(=O)[C@H](C)NC(=O)[C@H](CC(C)C)NC(=O)[C@H](CCCCN)NC(=O)[C@H](C)NC(=O)[C@H](CC(C)C)NC(=O)[C@H](CCCCN)NC(=O)[C@H](CCCCN)NC(=O)[C@H](C)NC(=O)[C@@H](N)C(C)C)C(N)=O [FLAK 25 AM V]
LD50 MCF7 [1]: 130 µg/mL
CC50 at 24 h [2, 10]: 110 µg/mL (≈ 55.3 µM)

VALALKALKKALKKLKKALKKAL-OH [HECATE AC V]
LD50 MCF7 [1]: 160 µg/mL
CC50 at 24 h [2, 10]: 190 µg/mL

VAKKLAKLAKKLLAL-NH2 [P505, VAKKLAKLAKKLLAL-NH2]
HC50 at 1 h [9, 14]: 620 µg/mL

VAKFLAKFLKKAL-NH2 [compound 502]
CC50 at 24 h [2, 12]: 64 µg/mL
HC50 at 1 h [9, 13]: 100 µg/mL
